Measured values from patent US20230312580A1, “1-(5-(2-CYANOPYRIDIN-4-YL)OXAZOLE-2-CARBONYL)-4-METHYLHEXAHYDROPYRROLO[3,4-B]PYR ROLE-5(1H)-CARBONITRILE AS USP30 INHIBITOR FOR USE IN THE TREATMENT OF MITOCHONDRIAL DYSFUNCTION, CANCER AND FIBROSIS” (MISSION THERAPEUTICS LIMITED, priority 2020, published 2023).
Values after ≈ are worked out from the molar mass of the structure shown.

Experiments:
[1] = system: USP2, USP6, USP10, USP16, USP21, USP25, USP28; assay: DUB IC50 selectivity panel (seven DUBs); assay type: biochemical; conditions: range over the seven DUBs
UCHL1 = UCHL1 (Homo sapiens (Human), UniProt P09936); assay: UCHL1 DUB IC50; assay type: biochemical
Chain of UCHL1 (P09936 whole entry, species assumed): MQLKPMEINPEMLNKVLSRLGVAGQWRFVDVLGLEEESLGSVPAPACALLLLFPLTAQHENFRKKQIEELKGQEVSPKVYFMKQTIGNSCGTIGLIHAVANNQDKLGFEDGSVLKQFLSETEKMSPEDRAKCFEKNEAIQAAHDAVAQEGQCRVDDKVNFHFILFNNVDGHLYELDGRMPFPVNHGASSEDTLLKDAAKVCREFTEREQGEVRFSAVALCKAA

Cathepsin B = Cathepsin B (Homo sapiens (Human), UniProt P07858); assay: Cathepsin B IC50; assay type: biochemical
Cathepsin L = Cathepsin L (Homo sapiens (Human), UniProt P07711); assay: Cathepsin L IC50; assay type: biochemical
Chain of Cathepsin L (P07711 114-333, species assumed): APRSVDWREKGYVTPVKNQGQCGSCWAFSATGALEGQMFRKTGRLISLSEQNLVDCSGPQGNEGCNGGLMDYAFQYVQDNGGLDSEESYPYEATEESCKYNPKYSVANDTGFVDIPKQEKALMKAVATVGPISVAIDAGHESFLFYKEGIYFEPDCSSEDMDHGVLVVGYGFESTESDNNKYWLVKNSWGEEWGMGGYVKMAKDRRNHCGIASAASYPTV

Cathepsin V = Cathepsin V (Homo sapiens (Human), UniProt O60911); assay: Cathepsin V IC50; assay type: biochemical
Chain of Cathepsin V (O60911 114-334, species assumed): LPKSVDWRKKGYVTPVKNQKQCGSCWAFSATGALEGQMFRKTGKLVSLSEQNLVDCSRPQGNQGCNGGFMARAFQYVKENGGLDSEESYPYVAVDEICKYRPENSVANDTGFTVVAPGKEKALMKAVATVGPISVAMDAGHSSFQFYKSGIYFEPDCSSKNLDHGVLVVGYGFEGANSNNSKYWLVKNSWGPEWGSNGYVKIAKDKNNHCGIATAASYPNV

[2] = system: cathepsins (B, K, L, S and V); assay: Cathepsin IC50 panel, summary over B, K, L, S, V; assay type: biochemical; conditions: range over the five cathepsins
[3] = system: Eurofins CEREP SafetyScreen44 panel; assay: Eurofins CEREP SafetyScreen44 panel profiling; assay type: binding; conditions: single concentration of 10 µM
Source text: Aside from selectivity over other DUB enzymes, it is important for a drug to have low affinity for other targets, and pharmacological profiling may be performed against panels of targets to assess the potential for, and to minimise, potential off-target effects. Examples of targets for which the compounds of the present invention may be screened against are those of the industry standard Eurofins-Cerep SafetyScreen44 panel, which includes 44 targets as a representative selection of GPCR receptors, transporters, ion channels, nuclear receptors, and kinase and non-kinase enzymes. Preferably, compounds of the invention have insignificant affinity against targets of this screening panel. Further examples of targets for which the compounds of the present invention may be screened against are kinases of the Thermo Fisher SelectScreen kinase profiling panel, which includes 39 targets as a representative selection of kinase enzymes. Preferably, compounds of the invention have insignificant affinity against targets of this screening panel. Additionally, examples of a particular enzyme class for which the compounds of the present invention may be screened against are the cathepsins (e.g. cathepsin A, B, C, H, K, L, L2, S, V and Z). Preferably, compounds of the invention have good selectivity for USP30 over one or more of these enzymes.

hERG potassium channel = hERG potassium channel (Homo sapiens (Human), UniProt Q12809); assay: hERG potassium channel current in stably expressed CHO cells; assay type: cell-based; conditions: at 30 µM, 0.01 to 30 µM tested
Chain of hERG potassium channel (Q12809 whole entry): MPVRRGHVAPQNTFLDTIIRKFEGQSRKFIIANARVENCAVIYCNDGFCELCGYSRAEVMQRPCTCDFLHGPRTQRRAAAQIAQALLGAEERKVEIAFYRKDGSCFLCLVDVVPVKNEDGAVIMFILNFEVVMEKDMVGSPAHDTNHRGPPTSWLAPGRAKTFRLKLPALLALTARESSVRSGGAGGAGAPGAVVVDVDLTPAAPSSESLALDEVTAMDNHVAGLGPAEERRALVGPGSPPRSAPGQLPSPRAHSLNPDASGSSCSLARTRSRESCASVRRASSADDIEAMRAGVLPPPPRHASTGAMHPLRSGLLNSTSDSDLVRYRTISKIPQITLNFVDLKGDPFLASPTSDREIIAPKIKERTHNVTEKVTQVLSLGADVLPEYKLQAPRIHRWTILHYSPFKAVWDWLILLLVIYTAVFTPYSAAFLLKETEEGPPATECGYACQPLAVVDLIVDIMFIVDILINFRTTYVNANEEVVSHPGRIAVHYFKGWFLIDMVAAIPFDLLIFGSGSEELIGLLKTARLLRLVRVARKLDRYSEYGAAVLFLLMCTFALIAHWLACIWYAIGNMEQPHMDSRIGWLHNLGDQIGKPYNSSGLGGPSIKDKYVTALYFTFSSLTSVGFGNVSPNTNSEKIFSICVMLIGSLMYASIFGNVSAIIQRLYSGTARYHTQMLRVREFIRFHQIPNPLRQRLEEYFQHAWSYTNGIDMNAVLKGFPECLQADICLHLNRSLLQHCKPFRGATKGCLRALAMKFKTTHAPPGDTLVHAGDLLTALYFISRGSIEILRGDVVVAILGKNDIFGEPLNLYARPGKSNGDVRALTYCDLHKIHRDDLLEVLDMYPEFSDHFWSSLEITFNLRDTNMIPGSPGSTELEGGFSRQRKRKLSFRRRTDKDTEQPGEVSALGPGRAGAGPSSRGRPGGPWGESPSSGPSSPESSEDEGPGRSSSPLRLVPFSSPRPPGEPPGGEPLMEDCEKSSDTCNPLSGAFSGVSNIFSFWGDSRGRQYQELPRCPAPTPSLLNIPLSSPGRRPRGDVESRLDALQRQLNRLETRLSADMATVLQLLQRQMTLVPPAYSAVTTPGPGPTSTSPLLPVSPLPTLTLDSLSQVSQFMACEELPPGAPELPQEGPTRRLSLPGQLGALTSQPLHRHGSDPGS
Source text: The hERG predictor assay provides valuable information about the possible binding of test compounds to the potassium channel and potential QT prolongation on […]. Inhibition of the hERG current causes QT interval prolongation resulting in potentially fatal ventricular tachyarrhythmia (Torsades de Pointes). Typically, assay data may be generated from an automated patch-clamp assay platform.

TK6 cells = assay: In vitro micronucleus assay; assay type: cell-based; conditions: 27 hours recovery
Method: The micronucleus assay may be used to determine if a compound is genotoxic by evaluating the presence of micronuclei. Micronuclei may contain chromosome fragments produced from DNA breakage (clastogens) or whole chromosomes produced by disruption of the mitotic apparatus (aneugens).
Induction of chromosome damage was assessed using the in vitro micronucleus assay in TK6 cells.

[4] = system: HCT116 human colorectal carcinoma cells; assay: In vitro cytotoxicity (Cell Tox), alamarBlue; assay type: cell-based; conditions: HCT-116, 96-hour continual compound exposure
Source text: There is also a need for compounds that have a favourable safety profile, which may be measured by a variety of standard in vitro and in vivo methods. A cell toxicity counter-screen may be used to assay the anti-proliferative/cytotoxic effect in a particular cell line (e.g. HCT116) by fluorometric detection of rezasurin (alamarBlue™) to resofurin in response to mitochondrial activity.
In Vitro Cytotoxicity (Cell Tox): Measured in HCT116 human colorectal carcinoma cells using alamarBlue™ as the assay endpoint. Compound cytotoxicity was measured over a period of 96-hour continual compound exposure.

[5] = Log D lipophilicity measurement; assay type: physicochemical; conditions: pH 7.4; read-out: Log D measured at pH 7.4
Source text: log D: distribution co-efficient; lipophilicity measurement.

Turbidimetric solubility = assay type: physicochemical; conditions: aqueous buffer, kinetic from dmso stock
Source text: The solubility of a compound is an important factor in achieving a desired concentration of drug in systemic circulation for the anticipated pharmacological response. Low aqueous solubility is a problem encountered with formulation development of new chemical entities and to be absorbed a drug must be present in the form of solution at the site of absorption. The kinetic solubility of a compound may be measured using a turbidimetric solubility assay, the data from which may also be used in conjunction with Caco-2 permeability data to predict dose dependent human intestinal absorption.
Turbidimetric solubility: Test compound solution prepared in DMSO diluted into aqueous buffer. Turbidimetry is used as the end-point by measuring absorbance at 620 nm.

FaSSIF solubility = assay type: physicochemical; conditions: pH 6.5, fasted state simulated intestinal fluid
Source text: FaSSIF: simulated intestinal fluid in fasted state measured at pH 6.5.

Hepatocyte Cl mouse = assay type: in vitro ADME; conditions: mouse hepatocytes
Method: Hep Cl mouse: in vitro hepatocyte clearance in mouse cells.
(§1) Clu: in vitro clearance. Clu as defined here is the scaled clearance, in turn calculated from the intrinsic clearance. The intrinsic clearance is the predicted clearance due to hepatic metabolic reactions, determined from incubation of a compound in a hepatocyte preparation.

Hepatocyte Cl human = assay type: in vitro ADME; conditions: human hepatocytes
Method: Hep Cl human: in vitro hepatocyte clearance in human cells.
as §1

Mouse plasma stability = assay type: in vitro ADME; conditions: for half-life: read-out: Stability Mouse plasma t½
Source text: Other parameters that may be measured using standard assays that are indicative of a compound’s exposure profile include, for example plasma stability (half-life measurement), blood AUC, Cmax, Cmin and Tmax values.

WT-MDCK in vitro flux = assay type: in vitro ADME; conditions: dog
[6] = Plasma binding mouse (equilibrium dialysis); assay type: in vitro ADME; conditions: read-out: Binding Mouse Plasma fu,p
Source text: (§2) Plasma fu,p: The free fraction of a compound in plasma preparation determined by in vitro equilibrium dialysis. It is understood that only unbound (free) compound is capable of engaging with the target. Brain fu,br: The free fraction of a compound in brain homogenate preparation determined by in vitro equilibrium dialysis. It is understood that only unbound (free) compound is capable of engaging with the target.

[7] = Brain homogenate binding mouse (equilibrium dialysis); assay type: in vitro ADME; conditions: read-out: Binding Mouse Brain fu,br
Source text: as §2

PK mouse (IV and oral) = assay type: in vivo; conditions: plasma
Source text: Cl in vivo clearance: Pharmacokinetic measurement of the volume of plasma (or any matrix) from which a substance is completely removed per unit time.

Mouse PK microdialysis = assay type: in vivo
Source text: (§3) Kpuu is the ratio of unbound drug in brain to unbound drug in plasma and may be indicative of potential for treating peripheral and/or CNS indications.

Rat PK microdialysis = assay type: in vivo; conditions: microdialysis 30 mg/kg po
Source text: as §3

Dog PK (CSF) = assay type: in vivo
Source text: as §3

UUO injured kidneys = assay: Unilateral ureteral obstructive kidney disease model (UUO); assay type: in vivo, C57BL/6 mice; conditions: 10 days
Source text: UUO causes renal injury characterised by tubular cell injury, interstitial inflammation and fibrosis. It serves as a model of irreversible post-renal acute kidney injury (AKI). Experimental UUO has illustrated the molecular mechanisms of apoptosis, inflammation and fibrosis, all of which are key processes in renal injury, regardless of the primary insult. Consequently, the UUO model provides investigators information beyond obstruction (Chevalier et al, 2009, Kidney Int 75(11): 1145-1152). Example 1 was assessed in the UUO model to determine the ability of the compound to attenuate progressive tubulointerstitial fibrosis and chronic kidney disease (CKD). […] Two hours post dosing on day 1 study mice underwent surgery to ligate the left ureter at two points. Successful UUO surgery was later confirmed by observation of dilation of renal pelvis due to hydronephrosis. The animals were dosed according to their prescribed regimen for 10 days at which point kidneys were harvested, or histopathology assessment and for protein/RNA assessment. Picrosirius Red staining was performed to assess the extent of collagen deposition and IHC was employed to assess relative α-Smooth Muscle Actin (α-SMA) expression.

[8] = system: Salmonella typhimurium strains TA98, TA100, TA1535 and TA97a and the Escherichia Coli strain WP2 uvrA pKM101; assay: Bacterial reverse mutation assay (Ames); conditions: up to 5000 µg/plate with and without metabolic activation
Method: The bacterial reverse mutation assay (Ames Test) may be used to evaluate the mutagenic properties of compounds of the invention, commonly by using the bacterial strain Salmonella typhimurium, which is mutant for the biosynthesis of the amino acid histidine.
All in vitro tests were conducted with and without exogenous metabolic activation using concentrations up to those limited by cytotoxicity or insolubility.

USP30 = USP30 (Homo sapiens (Human), UniProt Q70CQ3); assay: USP30 biochemical IC50 assay (fluorescence polarisation); conditions: biochemical FP assay, 30 min enzyme/compound incubation
Chain of USP30 (Q70CQ3 57-517): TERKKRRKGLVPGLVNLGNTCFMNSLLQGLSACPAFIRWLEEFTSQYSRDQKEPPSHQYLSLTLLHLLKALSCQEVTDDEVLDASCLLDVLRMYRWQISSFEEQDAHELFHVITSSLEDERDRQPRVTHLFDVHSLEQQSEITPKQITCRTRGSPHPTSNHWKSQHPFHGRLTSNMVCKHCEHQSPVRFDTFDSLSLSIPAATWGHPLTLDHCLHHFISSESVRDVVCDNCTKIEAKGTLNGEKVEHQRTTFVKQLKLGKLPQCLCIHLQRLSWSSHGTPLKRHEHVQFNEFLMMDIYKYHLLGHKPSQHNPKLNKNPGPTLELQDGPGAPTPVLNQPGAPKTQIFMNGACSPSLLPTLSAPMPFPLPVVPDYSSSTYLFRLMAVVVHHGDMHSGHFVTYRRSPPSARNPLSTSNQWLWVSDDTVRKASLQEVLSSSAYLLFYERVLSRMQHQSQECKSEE
Method: Compounds of the invention may be tested for USP30 affinity using the in vitro biochemical fluorescence polarization (FP) assay described herein.
Dilution plates were prepared at 21 times the final concentration (2100 µM for a final concentration of 100 µM) in 50% DMSO in a 96-well polypropylene V-bottom plate (Greiner #651201). A typical 8-point dilution series would be 100, 30, 10, 3, 1, 0.3, 0.1, 0.03 µM final. Reactions were performed in duplicate in black 384 well plates (small volume, Greiner 784076) in a final reaction volume of 21 µl. Either 1 µl of 50% DMSO or diluted compound was added to the plate. USP30 (Boston Biochem #E582) was diluted in reaction buffer (40 mM Tris, pH 7.5, 0.005% Tween 20, 0.5 mg/ml BSA, 5 mM beta-mercaptoethanol) to achieve a final assay concentration of 4 nM, and 10 µl of diluted USP30 was added to the compound. Enzyme and compound were incubated for 30 min at room temp. Reactions were initiated by the addition of 50 nM of TAMRA labelled peptide linked to ubiquitin via an iso-peptide bond as fluorescence polarisation substrate. Reactions were read immediately after addition of substrate and following a 2-hour incubation at room temperature. Readings were performed on a Pherastar Plus (BMG Labtech). λ Excitation 540 nm; λ Emission 590 nm.

C[C@@H]1[C@H]2CCN(C(=O)c3ncc(-c4ccnc(C#N)c4)o3)[C@H]2CN1C#N (single isomer, unassigned) [Example 1]
IC50 [1]: 24.9 to 107 µM | IC50 (UCHL1): > 300 µM | IC50 (Cathepsin B): 205 µM | IC50 (Cathepsin L): 42.1 µM | IC50 (Cathepsin V): 247 µM | IC50 [2]: ≥ 42.1 µM | inhibition of binding or enzyme activity against all targets in the panel [3]: less than 50% | maximum inhibition of the hERG current amplitude (hERG potassium channel): 27% | induction of micronuclei (TK6 cells; 3 hours in the presence of exogenous metabolic activation): negative | induction of micronuclei (TK6 cells; 27 hours in the absence of exogenous metabolic activation): negative | EC50 [4]: > 30 µM | logD [5]: 1.4 | solubility (Turbidimetric solubility): 65 µM (≈ 22.6 µg/mL) | FaSSIF (µM) measured at pH 6.5 (FaSSIF solubility): 488 µM | Hepatocyte Cl mouse scaled Clu (Hepatocyte Cl mouse): 40 mL/min/kg | Hepatocyte Cl human scaled Clu (Hepatocyte Cl human): 18 mL/min/kg | improved plasma stability compared to Reference Examples A, B and C (Mouse plasma stability): 2 to 8 fold | half-life (Mouse plasma stability): > 120 min | Papp A→B (WT-MDCK in vitro flux): 16 ×10⁻⁶ cm/s | fraction unbound [6]: 0.14 | fraction unbound [7]: 0.3 | bioavailability (PK mouse (IV and oral); po, mouse 10 mg/kg, read-out: Oral F (%)): 87% | clearance (PK mouse (IV and oral); mouse 2 mg/kg IV, read-out: Cl plasma): 19 mL/min/kg | CNS distribution in vivo by microdialysis sampling of brain regions (Mouse PK microdialysis; 30 mg/kg oral dose in mice and rats): high CNS distribution | Mouse Kpuu (PFCu/plasmau) (Mouse PK microdialysis; microdialysis 30 mg/kg po): 0.90 | Mouse PFCu/cell TOM20-Ub (Mouse PK microdialysis; microdialysis 30 mg/kg po): 125-fold | Rat Kpuu (PFCu/plasmau) (Rat PK microdialysis): 0.43 | Dog Kpuu (CSF/plasmau) (Dog PK (CSF); 30 mg/kg po): 0.41 | partition to the cerebro-spinal fluid (CSF) (Dog PK (CSF); dogs, 30 mg/kg orally): high partition | α-SMA levels in UUO injured kidneys vs vehicle (UUO injured kidneys; 1.5 mg/kg oral BID): statistical reduction in α-SMA levels | collagen deposition (picrosirius red staining) in ligated kidneys (UUO injured kidneys; 1.5 mg/kg p.o. BID): statistically reduced collagen deposition | collagen deposition (picrosirius red staining) in ligated kidneys (UUO injured kidneys; 5 mg/kg p.o. BID): statistically reduced collagen deposition | induction of mutations in reverse mutation assay [8]: did not induce mutations

COc1ccc(-c2cc(C(=O)N3CC[C@@H]4CN(C#N)C[C@@H]43)on2)cc1 [B]
IC50 (USP30): 0.07 µM | IC50 [1]: 0.54 to 38.8 µM | IC50 (Cathepsin B): 1.4 µM | IC50 (Cathepsin L): 1.8 µM | IC50 (Cathepsin V): 2.3 µM | Hepatocyte Cl mouse scaled Clu (Hepatocyte Cl mouse): > 121 mL/min/kg | half-life (Mouse plasma stability): 21 min

N#CN1CC[C@H](C(=O)Nc2ncc(-c3ccccc3)s2)C1 [D]
fold more potent against USP30 than UCHL1 (UCHL1): 0.8 fold

Cc1cc(-c2cccc(C(=O)N3CC[C@@H]4CN(C#N)C[C@@H]43)c2)ccn1 [Reference Example C]
IC50 (USP30): 0.072 µM | IC50 [1]: 4 to 92.4 µM | IC50 (Cathepsin B): 1.2 µM | IC50 (Cathepsin L): 1.3 µM | IC50 (Cathepsin V): 18.5 µM | Hepatocyte Cl mouse scaled Clu (Hepatocyte Cl mouse): 108 mL/min/kg | half-life (Mouse plasma stability): 16 min

CC1CC(C(=O)Nc2ncc(-c3ccccc3)s2)CN1C#N (stereo not shown) [Reference Example E]
fold more potent against USP30 than UCHL1 (UCHL1): 1.5 fold
